Measured values from patent US20230066011A1, “PYRROLOPYRIMIDINE DERIVATIVE, AND PHARMACEUTICAL COMPOSITION FOR PREVENTING OR TREATING PROTEIN KINASE-RELATED DISEASE COMPRISING SAME AS ACTIVE INGREDIENT” (VORONOI CO., LTD., priority 2019, published 2023).

How the values were obtained:
LRRK2 [1] = biological target: T1, LRRK2 (Homo sapiens, UniProt Q5S007); assay: LRRK2 enzyme inhibition, ADP-Glo kinase assay; type: biochemical; parameters: purchased Invitrogen PR8604B; conditions: ATP 10 μM
How it was run: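 ADP-Glo luminescent read-out of ADP formed by purified human LRRK2 enzyme (25 ng), 10 μM ATP, 0.2 μg substrate, 25° C for 2 h, Tris-HCl pH 7.4 buffer with MgCl2, BSA, DTT. Inhibition versus untreated solvent control over twelve final concentrations (50 μM downward) gives IC50.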
Target sequence in this assay (Q5S007 970-2527 limits assumed): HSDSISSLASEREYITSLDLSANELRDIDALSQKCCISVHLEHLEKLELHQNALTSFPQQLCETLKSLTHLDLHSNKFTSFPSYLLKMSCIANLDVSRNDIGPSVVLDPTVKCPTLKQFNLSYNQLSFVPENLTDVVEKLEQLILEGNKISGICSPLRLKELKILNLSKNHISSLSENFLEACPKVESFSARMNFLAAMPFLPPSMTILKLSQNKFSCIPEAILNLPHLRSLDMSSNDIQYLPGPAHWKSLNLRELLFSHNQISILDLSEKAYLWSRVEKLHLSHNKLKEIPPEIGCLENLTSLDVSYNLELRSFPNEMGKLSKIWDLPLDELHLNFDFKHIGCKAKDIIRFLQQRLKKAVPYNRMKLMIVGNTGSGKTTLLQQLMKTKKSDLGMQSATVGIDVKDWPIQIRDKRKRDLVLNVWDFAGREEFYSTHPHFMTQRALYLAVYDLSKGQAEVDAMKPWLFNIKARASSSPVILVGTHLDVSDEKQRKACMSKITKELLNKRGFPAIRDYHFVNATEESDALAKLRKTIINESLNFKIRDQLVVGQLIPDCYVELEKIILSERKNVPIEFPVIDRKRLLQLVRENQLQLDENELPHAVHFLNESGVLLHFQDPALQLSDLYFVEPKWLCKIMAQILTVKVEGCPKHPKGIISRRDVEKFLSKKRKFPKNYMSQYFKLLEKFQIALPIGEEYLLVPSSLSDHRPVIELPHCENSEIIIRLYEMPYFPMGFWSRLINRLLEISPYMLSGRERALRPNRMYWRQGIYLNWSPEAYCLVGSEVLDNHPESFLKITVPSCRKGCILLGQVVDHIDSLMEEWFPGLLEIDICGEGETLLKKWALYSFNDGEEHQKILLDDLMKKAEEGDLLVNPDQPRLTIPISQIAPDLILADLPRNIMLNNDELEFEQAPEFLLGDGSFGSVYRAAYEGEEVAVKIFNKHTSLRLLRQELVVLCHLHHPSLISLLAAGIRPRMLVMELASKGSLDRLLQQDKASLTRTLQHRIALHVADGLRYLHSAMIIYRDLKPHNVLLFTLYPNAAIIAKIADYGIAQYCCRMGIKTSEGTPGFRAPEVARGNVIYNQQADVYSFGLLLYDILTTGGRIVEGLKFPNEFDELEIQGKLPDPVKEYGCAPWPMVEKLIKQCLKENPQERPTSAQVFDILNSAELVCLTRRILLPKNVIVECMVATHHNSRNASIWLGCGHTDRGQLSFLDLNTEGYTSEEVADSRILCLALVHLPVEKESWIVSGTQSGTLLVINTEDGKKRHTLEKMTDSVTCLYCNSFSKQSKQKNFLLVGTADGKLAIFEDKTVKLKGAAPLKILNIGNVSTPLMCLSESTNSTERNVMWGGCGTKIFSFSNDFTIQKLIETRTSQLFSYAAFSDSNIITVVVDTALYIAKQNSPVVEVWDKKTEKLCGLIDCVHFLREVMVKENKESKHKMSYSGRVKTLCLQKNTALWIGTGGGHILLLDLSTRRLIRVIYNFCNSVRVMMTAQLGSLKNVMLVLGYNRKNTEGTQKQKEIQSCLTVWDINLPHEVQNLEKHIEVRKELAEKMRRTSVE

DYRK1 = DYRK1 (Homo sapiens, UniProt Q13627); assay: Kinase HotSpot service (Reaction Biology Corporation), DYRK1; type: biochemical; conditions: ATP 10 uM, read-out: DYRK1 IC50 (values indicated by *)
Protocol: (§1) The inhibitory activities of the compounds were measured at a 3-fold concentration gradient starting from a maximum compound concentration of […], and the values measured using the Kinase HotSpot service (Reaction Biology Corporation) are indicated by an asterisk (*).
(§2) All the experimental methods were performed as provided by the Kinase HotSpot Customer Protocol (http://www.reactionbiology.com//Kinase_Assay_Protocol).

human GST-CLK1 = biological target: T2, human GST-CLK1 (Homo sapiens, UniProt P49759); assay: GST-CLK1 enzyme inhibition, ADP-Glo kinase assay; type: biochemical; conditions: ATP 10 μM, GST-CLK1 129-end
T2 construct: purified human GST-CLK1 (129-end, SignalChem) enzyme; purchased SignalChem
How it was run: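 ADP-Glo luminescence read-out, relative to untreated solvent control, gave IC50 (nM) from triplicate data sets. Reactions ran an hour at 25° C with 3 ng GST-CLK1 (residues 129-end), 10 μM ATP and specific substrate in Tris-HCl pH 7.4 buffer with MgCl2, BSA and DTT.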

human DYRK1A and tau = assay: Inhibition of tau phosphorylation, ClariCELL Kinase Cell-Based Assay, HEK 293 cells expressing human DYRK1A and tau; conditions: for inhibition at 1 µM: HEK293, read-out: % inhibition at 1 uM, tau phosphorylation, compound 1 uM; for inhibition at 0.25 µM / inhibition at 0.5 µM: HEK293, tau phosphorylation
Protocol: An inhibitory effect on tau phosphorylation was determined using the ClariCELL™ Kinase Cell-Based Assay service (commercially available from CamaBio USA, Inc.). Human embryonic kidney (HEK 293) cells temporarily expressing human DYRK1A and tau were exposed to the compound, and then lysed to release cell proteins. In this case, the released tau was captured on a plate, and a degree of phosphorylation was quantified by ELISA using a tau phosphorylation-specific antibody.

LRRK2 (G2019S) = LRRK2 (G2019S) (Homo sapiens, UniProt Q5S007, G2019S); assay: LRRK2 G2019S enzyme inhibition, ADP-Glo kinase assay; type: biochemical; parameters: purchased SignalChem L10-12GG; conditions: ATP 25 μM
How it was run: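 IC50 derived from luminescent ADP-Glo readout against untreated solvent control, twelve final compound concentrations from 50 μM downward. Reaction: recombinant human LRRK2 G2019S enzyme, 25 μM ATP, substrate, pH 7.4 Tris buffer with MgCl2/BSA/DTT, 25° C. for 2 hours.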

CLK1 = biological target: T3, CLK1 (Homo sapiens, UniProt P49759); assay: Kinase HotSpot service (Reaction Biology Corporation), CLK1; type: biochemical; conditions: ATP 10 uM, read-out: CLK1 IC50 (values indicated by *)
T3 construct: purchased DiscoverX Corp. (ScanMAX Kinase analysis panel, service)
Protocol: as §1, §2

MDA-MB-468 cell line = assay: Inhibition of proliferation of MDA-MB-468 cancer cells (Cell Titer-Glo); type: cell-based
How it was run: (§3)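 Luminescence from Cell Titer-Glo (10 min, room temperature) gave GI50 after 72 h compound treatment. Final compound levels spanned 0.000169–10.000000 μM over 11 points, 3-fold steps; 2,000 cells/well grown in DMEM or RPMI.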

MDA-MB-231 cell line = assay: Inhibition of proliferation of MDA-MB-231 cancer cells (Cell Titer-Glo); type: cell-based; conditions: Homo sapiens, 72 hours
How it was run: as §3

LRRK2 [2] = biological target: T1, LRRK2; assay: Kinase HotSpot service (Reaction Biology Corporation), LRRK2; type: biochemical; parameters: purchased DiscoverX Corp. (ScanMAX Kinase analysis panel, service); conditions: ATP 10 uM, read-out: LRRK2 IC50 (values indicated by *)
Protocol: as §1, §2
Target sequence in this assay (Q5S007 whole entry): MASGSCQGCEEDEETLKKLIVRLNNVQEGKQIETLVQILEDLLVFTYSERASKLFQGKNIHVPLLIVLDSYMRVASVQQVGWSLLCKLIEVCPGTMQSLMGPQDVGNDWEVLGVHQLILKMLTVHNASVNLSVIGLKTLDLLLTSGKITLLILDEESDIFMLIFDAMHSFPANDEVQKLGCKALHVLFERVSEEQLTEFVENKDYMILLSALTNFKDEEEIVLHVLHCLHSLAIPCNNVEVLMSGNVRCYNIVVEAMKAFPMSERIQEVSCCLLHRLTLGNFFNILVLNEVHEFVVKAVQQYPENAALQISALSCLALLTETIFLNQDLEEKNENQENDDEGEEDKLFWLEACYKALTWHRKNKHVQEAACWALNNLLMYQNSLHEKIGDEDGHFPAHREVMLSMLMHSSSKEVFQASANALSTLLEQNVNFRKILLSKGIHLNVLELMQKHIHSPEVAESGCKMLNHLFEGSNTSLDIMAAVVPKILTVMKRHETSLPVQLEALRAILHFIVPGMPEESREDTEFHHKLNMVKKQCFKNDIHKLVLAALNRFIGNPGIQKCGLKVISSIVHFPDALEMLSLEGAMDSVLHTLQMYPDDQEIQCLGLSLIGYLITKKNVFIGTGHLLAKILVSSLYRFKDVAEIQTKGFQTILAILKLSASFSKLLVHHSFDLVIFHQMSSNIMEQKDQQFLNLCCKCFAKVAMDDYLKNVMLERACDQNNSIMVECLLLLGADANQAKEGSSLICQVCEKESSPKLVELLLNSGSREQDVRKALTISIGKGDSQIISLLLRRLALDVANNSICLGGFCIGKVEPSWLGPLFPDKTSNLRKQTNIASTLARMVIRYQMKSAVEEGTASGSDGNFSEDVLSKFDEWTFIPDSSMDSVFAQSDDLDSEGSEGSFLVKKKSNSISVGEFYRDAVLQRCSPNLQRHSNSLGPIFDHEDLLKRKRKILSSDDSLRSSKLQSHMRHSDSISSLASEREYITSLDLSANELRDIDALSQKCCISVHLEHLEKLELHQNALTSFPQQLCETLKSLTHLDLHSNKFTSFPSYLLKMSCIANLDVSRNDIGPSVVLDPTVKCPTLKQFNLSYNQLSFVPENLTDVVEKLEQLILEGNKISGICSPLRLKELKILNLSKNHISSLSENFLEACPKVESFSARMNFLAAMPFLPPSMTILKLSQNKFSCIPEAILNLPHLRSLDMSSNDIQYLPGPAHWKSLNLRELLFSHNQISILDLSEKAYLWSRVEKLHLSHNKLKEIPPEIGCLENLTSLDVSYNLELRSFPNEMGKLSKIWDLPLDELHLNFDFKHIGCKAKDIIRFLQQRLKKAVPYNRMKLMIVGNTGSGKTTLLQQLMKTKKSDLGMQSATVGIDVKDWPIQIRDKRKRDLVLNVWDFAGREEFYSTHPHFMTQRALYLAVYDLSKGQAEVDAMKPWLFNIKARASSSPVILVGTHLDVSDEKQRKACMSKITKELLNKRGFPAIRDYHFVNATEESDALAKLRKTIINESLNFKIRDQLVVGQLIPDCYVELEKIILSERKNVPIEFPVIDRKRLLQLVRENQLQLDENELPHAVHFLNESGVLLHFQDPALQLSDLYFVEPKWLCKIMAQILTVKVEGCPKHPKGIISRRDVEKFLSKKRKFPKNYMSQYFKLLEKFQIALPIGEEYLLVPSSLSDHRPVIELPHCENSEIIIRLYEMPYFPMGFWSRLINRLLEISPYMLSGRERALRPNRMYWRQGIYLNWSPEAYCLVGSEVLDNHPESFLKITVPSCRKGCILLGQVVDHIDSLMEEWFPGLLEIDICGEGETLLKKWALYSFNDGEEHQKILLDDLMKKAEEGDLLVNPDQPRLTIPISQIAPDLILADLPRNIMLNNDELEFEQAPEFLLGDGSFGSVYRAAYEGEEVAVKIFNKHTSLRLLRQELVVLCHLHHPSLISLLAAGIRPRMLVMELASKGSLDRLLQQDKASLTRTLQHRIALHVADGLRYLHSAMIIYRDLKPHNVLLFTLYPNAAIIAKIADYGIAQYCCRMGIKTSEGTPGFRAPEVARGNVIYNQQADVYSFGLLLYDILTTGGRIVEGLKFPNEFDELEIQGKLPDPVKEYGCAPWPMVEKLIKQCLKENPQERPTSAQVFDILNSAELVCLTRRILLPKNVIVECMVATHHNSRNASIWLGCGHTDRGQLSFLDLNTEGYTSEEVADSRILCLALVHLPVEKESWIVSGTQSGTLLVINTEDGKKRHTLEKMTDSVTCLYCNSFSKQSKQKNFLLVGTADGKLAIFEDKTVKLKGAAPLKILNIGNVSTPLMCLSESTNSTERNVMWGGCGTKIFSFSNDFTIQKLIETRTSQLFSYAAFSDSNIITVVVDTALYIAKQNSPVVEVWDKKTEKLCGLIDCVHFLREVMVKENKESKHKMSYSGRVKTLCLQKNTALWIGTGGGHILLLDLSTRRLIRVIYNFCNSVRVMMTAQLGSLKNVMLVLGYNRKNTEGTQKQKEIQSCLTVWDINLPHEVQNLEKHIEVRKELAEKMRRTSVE

human GST-DYRK1A = biological target: T4, human GST-DYRK1A (Homo sapiens, UniProt Q13627); assay: GST-DYRK1A enzyme inhibition, ADP-Glo kinase assay; type: biochemical; conditions: ATP 10 μM, GST-DYRK1A full length, read-out: DYRK1 IC50
T4 construct: purified human GST-DYRK1A (full length, Thermo Scientifics) enzyme; purchased Thermo Scientifics
How it was run: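 Full-length enzyme (10 ng) was incubated with 10 μM ATP and a specific substrate for 1 h at 25 °C in 40 mM Tris-HCl pH 7.4, 20 mM MgCl2, 0.5 mg/mL BSA, 50 μM DTT. Luminescence was read against a solvent control, and IC50 values were derived from 3 data sets.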

TNF-α = assay: Inhibition of LPS-induced TNF-α secretion of THP-1 monocytes (ELISA); type: cell-based, human; conditions: compound 0.5 μM, LPS 500 ng/mL, 24 hours; for inhibition at 0.5 µM: Homo sapiens, THP-1, read-out: THP-1/TNF-α (% inhib)
Protocol: (§4) To evaluate an inhibitory effect on cytokine secretion of monocytes, THP-1 cells (ATCC, #TIB-202) as a human-derived monocyte line were cultured in an RPMI-1640 (Hyclone, SH30027.01) medium supplemented with 10% fetal bovine serum (Hyclone, SH30084.03), 1% penicillin streptomycin (Welgene, LS202-02), and 50 μM 2-mercaptoethanol (Gibco, #21985023). In the test, the cells were seeded in a 48-well plate (SPL, #30048) at a density of 1.5 to 2×10^5 cells/250 μL per well, and cultured at 37° C. for 16 hours in a 5% CO2 incubator. Thereafter, the compound was diluted with DMSO so that the final concentration of the compound was 0.5 μM. Then, the cells were treated with the diluted compound before an hour of treatment with lipopolysaccharides (LPS) (Sigma, #L6529). After the treatment with the compound, the cells were treated with LPS so that the final concentration was 500 ng/mL. Then, a cell culture broth was collected after 24 hours of culture, and levels of cytokine IL-6 (R&D Systems, #D6050) and TNF-α (R&D Systems, #DTA00D) comprised in the culture broth were measured using respective ELISA kits. After an experiment was performed according to the manufacturer's guidelines, cell analysis was performed by measuring the optical density at 450 nm using a microplate reader.

IL-6 = assay: Inhibition of LPS-induced IL-6 secretion of THP-1 monocytes (ELISA); type: cell-based, human; conditions: compound 0.5 μM, LPS 500 ng/mL, 24 hours; for inhibition at 0.5 µM: Homo sapiens, THP-1, read-out: THP1/IL6 (% inhib)
Protocol: as §4

[3] = Homo sapiens, MDA-MB-468, 72 hours

T2 sequence (P49759 129-484 limits assumed): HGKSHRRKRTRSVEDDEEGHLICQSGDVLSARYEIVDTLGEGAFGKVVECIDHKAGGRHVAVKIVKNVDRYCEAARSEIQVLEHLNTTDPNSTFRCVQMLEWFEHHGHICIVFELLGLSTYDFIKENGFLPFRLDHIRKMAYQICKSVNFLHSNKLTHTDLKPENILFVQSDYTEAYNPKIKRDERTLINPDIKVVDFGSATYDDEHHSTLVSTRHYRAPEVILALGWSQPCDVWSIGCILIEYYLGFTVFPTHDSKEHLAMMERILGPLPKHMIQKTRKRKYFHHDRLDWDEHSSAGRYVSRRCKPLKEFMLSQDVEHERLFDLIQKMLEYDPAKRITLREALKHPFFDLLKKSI
Chain of LRRK2 (G2019S) (Q5S007 970-2527 G2019S limits assumed): as the sequence (Q5S007 970-2527 limits assumed) above, with G1050S counted along it
T3 sequence (P49759 whole entry): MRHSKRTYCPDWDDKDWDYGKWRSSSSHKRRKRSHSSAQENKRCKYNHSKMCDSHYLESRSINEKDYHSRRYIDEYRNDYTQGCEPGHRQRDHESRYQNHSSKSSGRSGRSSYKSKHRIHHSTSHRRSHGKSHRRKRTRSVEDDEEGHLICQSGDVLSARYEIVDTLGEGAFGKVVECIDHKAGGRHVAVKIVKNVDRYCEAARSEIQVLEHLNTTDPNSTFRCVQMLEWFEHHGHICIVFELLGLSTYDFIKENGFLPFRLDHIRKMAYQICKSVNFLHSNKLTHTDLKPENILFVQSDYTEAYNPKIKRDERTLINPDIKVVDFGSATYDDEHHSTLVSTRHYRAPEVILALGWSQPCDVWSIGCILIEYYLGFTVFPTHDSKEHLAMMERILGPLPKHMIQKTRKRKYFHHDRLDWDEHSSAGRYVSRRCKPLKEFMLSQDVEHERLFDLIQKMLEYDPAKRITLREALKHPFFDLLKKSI

Structure (SMILES)	IC50 (LRRK2 [1]) [µM]	IC50 (DYRK1) [µM]	IC50 (human GST-CLK1) [µM]	inhibition at 1 µM (human DYRK1A and tau) [%]	inhibition at 0.25 µM (human DYRK1A and tau; compound 0.25 uM) [%]	inhibition at 0.5 µM (human DYRK1A and tau; compound 0.5 uM) [%]	also measured
CCc1nc(Nc2ccc(C(=O)N3CCC(N4CCOCC4)CC3)c3c2OCCO3)nc2[nH]cc(C(F)(F)F)c12 [Example 395, (8-((4-ethyl-5-(trifluoromethyl)-7H-pyrrolo[2,3-d]pyrimidin-2-yl)amino)-2,3-dihydrobenzo [b][1,4]dioxin-5-yl)(4-morpholino-piperidin-1-yl)methanone]	< 0.1	< 0.1	0.101 to 0.3				
CCc1nc(Nc2ccc(P3(=O)CCN(C4CC4)CC3)cc2OC)nc2[nH]cc(C(F)(F)F)c12 [Example 396, 1-cyclopropyl-4-(4-((4-ethyl-5-(trifluoromethyl)-7H-pyrrolo[2,3-d]pyrimidin-2-yl)amino)-3-methoxyphenyl)-1,4-azaphosphinane-4-oxide]	0.101 to 0.3	< 0.1	0.301 to 1				
O=C(c1ccc(Nc2nc(C3CC3)c3c(C(F)(F)F)c[nH]c3n2)c2c1CCO2)N1CC[C@@H](N2CCOCC2)C1 [Example 471, (R)-(7-((4-cyclopropyl-5-(trifluoromethyl)-7H-pyrrolo[2,3-d]pyrimidin-2-yl)amino)-2,3-dihydrobenzo-furan-4-yl)(3-morpholino-pyrrolidin-1-yl)methanone]		< 0.1	< 0.1	42.8	3.9	29.6	
C=CCNc1nc(Nc2ccc(S(=O)(=O)N3CCC(N4CCOCC4)CC3)cc2OC)nc2[nH]cc(C(F)(F)F)c12 [Example 469, N^4-allyl-N2-(2-methoxy-4-((4-morpholino-piperidin-1-yl)sulfonyl)phenyl)-5-(trifluoromethyl)-7H-pyrrolo[2,3-d]pyrimidine-2,4-diamine]		< 0.1					IC50 (LRRK2 (G2019S)): < 0.1 µM; IC50 (CLK1): < 0.1 µM; GI50 (MDA-MB-468 cell line; [3]): 101 to 300 nM; GI50 (MDA-MB-231 cell line): 101 to 300 nM; IC50 (LRRK2 [2]): < 0.1 µM
COc1cc(P(C)(C)=O)ccc1Nc1nc(C2CC2)c2c(C(F)(F)F)c[nH]c2n1 [Example 229, (4-((4-cyclopropyl-5-(trifluoromethyl)-7H-pyrrolo[2,3-d]pyrimidin-2-yl)amino)-3-methoxyphenyl)dimethylphosphine oxide]		< 0.1	0.101 to 0.3				
CNc1nc(Nc2ccc(C(=O)N3C[C@@H]4C[C@H]3CO4)c3c2OCCO3)nc2[nH]cc(C(F)(F)F)c12 [Example 408, ((1S,4S)-2-oxa-5-azabicyclo[2.2.1]heptan-5-yl)(8-((4-(methylamino)-5-(trifluoromethyl)-7H-pyrrolo[2,3-d]pyrimidin-2-yl)amino)-2,3-dihydrobenzo[b] [1,4]dioxin-5-yl)methanone]	< 0.1		< 0.1	48.5	20.6	40.3	IC50 (human GST-DYRK1A): < 0.1 µM; inhibition at 0.5 µM (TNF-α): 4.3%; inhibition at 0.5 µM (IL-6): 19.5%
CCCNc1nc(Nc2ccc(C(=O)N3CCN(C4COC4)CC3)c3c2OCCO3)nc2[nH]cc(C(F)(F)F)c12 [Example 402, (4-(oxetan-3-yl)piperazin-1-yl)(8-((4-(propylamino)-5-(trifluromethyl)-7H-pyrrolo[2,3-d]pyrimidin-2-yl)amino)-2,3-dihydrobenzo[b] [1,4]dioxin-5-yl)methanone]			< 0.1				IC50 (LRRK2 (G2019S)): < 0.1 µM; GI50 (MDA-MB-468 cell line; 72 hours): 301 to 1000 nM; IC50 (human GST-DYRK1A): < 0.1 µM; THP-1/TNF-α (% inhib) (TNF-α): 1.4 % inhib; % inhibition at 0.25 uM (human DYRK1A and tau; tau phosphorylation, compound 0.25 uM): 7.9%; % inhibition at 0.5 uM (human DYRK1A and tau; tau phosphorylation, compound 0.5 uM): 26.5%; % inhibition at 1 uM (human DYRK1A and tau; tau phosphorylation, compound 1 uM): 61.7%; THP1/IL6 (% inhib) (IL-6): 18.2 % inhib
COc1cc(P2(=O)CCN(C3CC3)CC2)ccc1Nc1nc(C2CC2)c2c(C(F)(F)F)c[nH]c2n1 [Example 394, 1-cyclopropyl-4-(4-((4-cyclopropyl-5-(trifluoromethyl)-7H-pyrrolo[2,3-d]pyrimidin-2-yl)amino)-3-methoxyphenyl)-1,4-azaphosphinane4-oxide]	< 0.1	< 0.1	0.301 to 1				GI50 (MDA-MB-468 cell line; [3]): 301 to 1000 nM
O=C(c1ccc(Nc2nc(N[C@H]3CCOC3)c3c(C(F)(F)F)c[nH]c3n2)c2c1OCCO2)N1CCN(C2COC2)CC1 [Example 418, (S)-(4-(oxetan-3-yl)piperazin-1-yl)(8-((4-((tetra-hydrofuran-3-yl)amino)-5-(trifluoromethyl)-7H-pyrrolo[2,3-d]pyrimidin-2-yl)amino)-2,3-dihydrobenzo[b] [1,4]dioxin-5-yl)methanone]			< 0.1	80.2	46.2	55.4	IC50 (LRRK2 (G2019S)): < 0.1 µM; IC50 (human GST-DYRK1A): < 0.1 µM; inhibition at 0.5 µM (TNF-α): 8.5%; inhibition at 0.5 µM (IL-6): 35.5%
O=S(=O)(c1ccc(Nc2nc(C3CC3)c3c(C(F)(F)F)c[nH]c3n2)c2c1OCCO2)N1CCOCC1 [Example 470, 4-cyclopropyl-N-(8-(morpho-linosulfonyl)-2,3-dihydrobenzo [b][1,4]dioxin-5-yl)-5-(trifluoromethyl)-7H-pyrrolo[2,3-d]pyrimidin-2-amine]		< 0.1	0.301 to 1	29.1	5.8	19.2	
N#Cc1c[nH]c2nc(Nc3ccc(C(=O)N4CCOCC4)c4c3OCCO4)nc(C3CC3)c12 [Example 220, 4-cyclopropyl-2-((8-(morpholine-4-carbonyl)-2,3-dihydrobenzo[b][1,4]dioxin-5-yl)amino)-7H-pyrrolo[2,3-d]pyrimidine-5-carbonitrile]	< 0.1	< 0.1	< 0.1				GI50 (MDA-MB-468 cell line; [3]): 101 to 300 nM
